The results in this text go back to ChEMBL document CHEMBL4811292, “Discovery of novel β-turn mimetic-based peptides as novel quorum sensing inhibitors of gram-negative bacteria” (Bioorg Med Chem Lett, 2021).

Experiment [1] is described as follows: Inhibition of quorum sensing system in Chromobacterium violaceum ATCC 31532 assessed as reduction in violacein production at <100 uM. Conditions: dose microM <100.
Experiment [2] relates to Staphylococcus epidermidis. Nature of the experiment: Inhibition of quorum sensing system in Staphylococcus epidermidis.
Experiment [3] deals with Pseudomonas aeruginosa. Nature of the experiment: Antibacterial activity against Pseudomonas aeruginosa assessed as inhibition of cell growth. The format is functional.
A short description of experiment [4]: Inhibition of quorum sensing system lasB in Pseudomonas aeruginosa transfected with lasB-gfp assessed as reduction of GFP production.
Experiment [5] can be described thus: Inhibition of quorum sensing system in Chromobacterium violaceum ATCC 31532 assessed as reduction in violacein production at 100 uM.
Experiment [6] deals with Pseudomonas aeruginosa. Nature of the experiment: Antibiofilm activity against Pseudomonas aeruginosa PA14 assessed as inhibition of biofilm formation at 15 to 50 uM measured after 48 hrs relative to control. The format is functional. Conditions: dose 15-50 µM.
For experiment [7], the system named is Pseudomonas aeruginosa. Briefly: Inhibition of quorum sensing system lasB in Pseudomonas aeruginosa transfected with lasB-gfp assessed as reduction of GFP production at 10 uM.
The test system of experiment [8] is Pseudomonas aeruginosa. Nature of the experiment: Potency index, ratio of 4NPO IC50 to test compound IC50 for inhibition of quorum sensing system lasB in Pseudomonas aeruginosa transfected with lasB-gfp.
Experiment [9] has as its system Pseudomonas aeruginosa. Nature of the experiment: Antibiofilm activity against Pseudomonas aeruginosa PA14 assessed as inhibition of biofilm formation at 50 uM measured after 48 hrs relative to control. The format is functional.
In experiment [10] the test system is Pseudomonas aeruginosa. Briefly: Inhibition of quorum sensing system lasB in Pseudomonas aeruginosa transfected with lasB-gfp assessed as reduction of GFP production at 10 to 15 uM. As to conditions: dose 10-15 µM.
Experiment [11] has as its system Pseudomonas aeruginosa. Briefly: Antibiofilm activity against Pseudomonas aeruginosa PA14 assessed as inhibition of biofilm formation at 15 to 50 uM measured after 48 hrs. In kind it is functional, organism-based. As to conditions: dose 15-50 µM.
The subject of experiment [12] is Pseudomonas aeruginosa. Nature of the experiment: Inhibition of quorum sensing system lasB in Pseudomonas aeruginosa transfected with lasB-gfp assessed as reduction of GFP production at 5 uM.

The structures appear in SMILES notation. ≈ marks a conversion by molar mass, not a printed value. Calls of active or inactive are those of the source. The calls are words filed in the database; no cut-off is given here. Some results are limits rather than exact numbers.

As a reminder, the inhibition is the share of the control response that was lost under treatment. The MIC is the least concentration at which growth counts as inhibited. A word on the IC50: it is the concentration at which inhibition is half-maximal. For the molecule `C=CCNC(=O)N1[C@H]2CN(Cc3ccccc3)C(=O)[C@H](C(C)CC)N2C(=O)CN1c1ccc(C)cc1` (some centres not stated), the inhibition entry in experiment [1] and in experiment [2] was “inactive” throughout. In addition, in experiment [3], the minimal inhibitory concentration (MIC) is more than 100 µM. Also, the IC50 in experiment [4] (read-out: IC50) came to 7 µM. The inhibition in experiment [5] stood at 49%. Also, the “inhibition (INH)” value in experiment [6] is on record as 20%. Besides, the inhibition entry in experiment [7] was “Active”. Besides, the Ratio IC50 in experiment [8] was determined as 2.

For `CCCCN1C[C@H]2N(C(=O)CN(c3ccc(C)cc3)N2C(=O)NCc2ccccc2)[C@@H](C(C)C)C1=O`, the inhibition entry in [1] and in experiment [2] was “inactive” in each case. In addition, in [3], the MIC is more than 150 µM. Also, in [4], the IC50 result is given as “Not Active”. Also, in experiment [5], the inhibition turned out to be 21%.

`Cc1ccc(N2CC(=O)N3[C@@H](CC(C)C)C(=O)N(Cc4ccco4)C[C@@H]3N2C(=O)NCc2ccccc2)cc1`: the inhibition result in experiment [1] and in [2] was “inactive” in each case. Further, the MIC in experiment [3] is more than 150 µM. In experiment [4] (read-out: IC50), the IC50 worked out at 12 µM. For the same molecule, the inhibition in experiment [5] stood at 52%. In experiment [9], the inhibition at 50 µM was determined as 80%. Besides, the inhibition entry in experiment [10] is “Active”. In addition, the Ratio IC50 in [8] stood at 2.

In the case of `CCCCN1C[C@H]2N(C(=O)CN(c3ccc(C)cc3)N2C(=O)NCc2ccccc2)[C@@H](Cc2ccc(Cl)cc2)C1=O`, the inhibition result in [1] and in [2] was “inactive” in each case. Further, the MIC in experiment [3] was found to be 100 µM (≈ 57.4 µg/mL). In addition, in experiment [4], the IC50 result was “Not Active”. Further, the inhibition in experiment [5] was found to be 12%.

For the molecule `O=[N+]([O-])c1cc[n+]([O-])cc1`, the IC50 in experiment [4] (read-out: IC50) was 27 µM. In addition, the inhibition in experiment [5] is 66%. Also, the inhibition result in experiment [11] is “Active”.

As to `C=CCNC(=O)N1[C@H]2CN(Cc3ccccc3)C(=O)[C@H](Cc3ccccc3)N2C(=O)CN1c1ccc(C)cc1`, the inhibition result in experiment [1] and in experiment [2] was “inactive” each time. Also, the MIC in experiment [3] was more than 100 µM. In experiment [4] (read-out: IC50), the IC50 was determined as 4 µM. Besides, in [5], the inhibition amounted to 62%. Further, the “inhibition (INH)” value in experiment [6] came out at 80%. Further, in experiment [12], the inhibition result is “Active”. In addition, the Ratio IC50 in [8] came to 2.
